Data set [1] addresses T1, recombinant human ETAR (HETA) (Homo sapiens, UniProt P25101).
T1 construct: expressed in transfected cells; host or cells: Ltk- cells (membrane preparation)
T1 sequence (P25101 21-427): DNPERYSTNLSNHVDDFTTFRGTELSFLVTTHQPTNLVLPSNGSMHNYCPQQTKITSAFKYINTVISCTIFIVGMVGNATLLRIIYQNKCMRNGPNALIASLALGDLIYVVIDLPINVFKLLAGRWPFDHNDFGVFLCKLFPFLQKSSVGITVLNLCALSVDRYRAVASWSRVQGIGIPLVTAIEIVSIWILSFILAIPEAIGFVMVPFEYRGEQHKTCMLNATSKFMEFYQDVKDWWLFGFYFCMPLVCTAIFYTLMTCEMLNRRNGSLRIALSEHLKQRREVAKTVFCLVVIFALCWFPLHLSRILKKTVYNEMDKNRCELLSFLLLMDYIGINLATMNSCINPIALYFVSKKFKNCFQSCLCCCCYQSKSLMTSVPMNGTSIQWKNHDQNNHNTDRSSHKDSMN
In words: Radioligand binding, [125I]ET-1 to membranes of Ltk- cells expressing recombinant human ETAR (HETA). The method, then: (§1) The following cultured cells were used in binding experiments: Ltk-cells expressing recombinant human ETAR (HETA), and CHOKI cells expressing recombinant human ETBR (HETB).
(§2) Membranes were prepared from cultured cells by lysing cells in cold lysis buffer (5 mM HEPES, 2 mM EDTA, pH 7.4) and homogenizing with a Dounce “A” homogenizer. The homogenate was centrifuged at 30,000×g for 20 minutes at […]. Membrane pellets were suspended in cold buffer containing 20 mM Tris, 2 mM EDTA, 200 μM Pefabloc, 10 μM phosphoramidon, 10 μM leupeptin, 1 μM pepstatin at pH 7.4 and frozen at […] until use. Membranes were thawed and homogenized with a Brinkmann Polytron then diluted in tissue buffer containing 20 mM Tris, 2 mM EDTA, 200 μM Pefabloc, and 100 μM bacitracin (pH 7.4). Radioligand and competing ligands were prepared in binding buffer containing 20 mM Tris, 2 mM EDTA, and 0.1% BSA.
(§3) The assay was terminated by filtration over Whatman GF/B filters which were presoaked with 50 mM Tris, pH 7.4 containing 0.2% BSA and 100 μM bacitracin. Nonspecific binding was defined as binding in the presence of 100 nM ET-1.

For data set [2], the target named is T2, recombinant human ETBR (HETB) (Homo sapiens, UniProt P24530).
T2 construct: expressed in transfected cells; host or cells: CHOKI (CHO-K1) cells (membrane preparation)
T2 sequence (P24530 27-442): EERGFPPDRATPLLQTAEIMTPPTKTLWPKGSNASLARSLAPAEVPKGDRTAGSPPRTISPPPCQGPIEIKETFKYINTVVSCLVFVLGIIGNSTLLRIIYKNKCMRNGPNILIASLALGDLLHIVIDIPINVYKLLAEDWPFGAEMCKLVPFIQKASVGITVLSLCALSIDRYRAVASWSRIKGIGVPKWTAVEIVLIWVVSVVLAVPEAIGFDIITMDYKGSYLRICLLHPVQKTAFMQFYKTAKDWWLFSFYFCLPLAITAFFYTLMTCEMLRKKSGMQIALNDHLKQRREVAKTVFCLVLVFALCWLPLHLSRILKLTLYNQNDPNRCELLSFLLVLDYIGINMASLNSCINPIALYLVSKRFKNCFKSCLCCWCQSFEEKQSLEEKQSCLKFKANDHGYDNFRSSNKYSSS
Nature of the data set: Radioligand binding, [125I]ET-1 to membranes of CHOKI cells expressing recombinant human ETBR (HETB). Particulars: [125I]ET-1 binding, human ETB, CHOKI cell membranes. On the procedure:
as §1, §2, §3

For data set [3], the system named is ETA, cultured rabbit renal artery vascular smooth muscle cells. Nature of the data set: Inhibition of ET-1 stimulated arachidonic acid release (AAR) in cultured rabbit vascular smooth muscle cells (ETA). Type of data set: cell-based. The method, then: In Vitro Inhibition of ET-1 Stimulated Arachidonic Acid Release (AAR) in Cultured Rabbit Vascular Smooth Muscle Cells (ETA) by the Compounds of the Invention
Antagonist activity is measured by the ability of added compounds to reduce endothelinstimulated arachidonic acid release in cultured vascular smooth muscle cells. [^3H]Arachidonic Acid Loading Media (LM) is DME/F12+0.5% FCS×0.25 mCi/mL [^3H]arachidonic acid (Amersham). Confluent monolayers of cultured rabbit renal artery vascular smooth muscle cells were incubated in 0.5 mL of the LM over 18 hours, at 37° C., in 5% CO2. The LM was aspirated and the cells were washed once with the assay buffer (Hank's BSS +10 mM HEPES +fatty acidfree BSA (1 mg/mL)), and incubated for 5 minutes with 1 mL of the prewarmed assay buffer. This solution was aspirated, followed by an additional 1 mL of prewarmed assay buffer, and further incubated for another 5 minutes. A final 5minute incubation was carried out in a similar manner. The same procedure was repeated with the inclusion of 10 μL of the test compound (1 nM to 1 μM) and 10 μL ET-1 -(0.3 nM) and the incubation was extended for 30 minutes. This solution was then collected, 10 mL of scintillation cocktail was added, and the amount of [^3H]arachidonic acid was determined in a liquid scintillation counter.

In data set [4] the test system is ETA, rabbit femoral artery. In words: Antagonism of ET-1 stimulated vasoconstriction (VERAA) in the rabbit femoral artery (ETA). Particulars: for VERAA (pA2): ET-1 stimulated vasoconstriction, rabbit femoral artery. From the text:
In Vitro Antagonism of ET-1 Stimulated Vasoconstriction (VERAA) in the Rabbit Femoral Arterv (ETA) and Sarafotoxin 6C Stimulated Vasoconstriction in the Rabbit Pulmonarv Artery (ETB)
Male New Zealand rabbits were killed by cervical dislocation and exsanguination. Femoral and pulmonary arteries were isolated, cleaned of connective tissue, and cut into 4mm rings. The endothelium was denuded by placing the rings over hypodermic tubing (32 gauge for femoral rings and 28 gauge for pulmonary rings, Small Parts, Inc., Miami, Fla.) and gently rolling them. Denuded rings were mounted in 20 mL organ baths containing Krebsbicarbonate buffer (composition in mM: NaCl, 118.2; NaHCO3, 24.8; KCl, 4.6; MgSO4 7H2O, 1.2; KH2PO4, 1.2; CaCl2 2H2O; CaNa2 EDTA, 0.026;, dextrose, 10.0), that was maintained at 37° C. and gassed continuously with 5% CO2 in oxygen (pH 7.4). Resting tension was adjusted to 3.0 g for femoral and 4.0 g pulmonary arteries; the rings were left for 90 minutes to equilibrate. Vascular rings were tested for lack of functional endothelium (ie, lack of an endotheliumdependent relaxation response to carbachol ([…]) in norepinephrine ([…]) contracted rings. Agonist peptides, ET-1 -(femoral), and S6c (pulmonary), were cumulatively added at 10-minute intervals. The ET antagonists were added 30 minutes prior to adding the agonist.

Data set [5] deals with ETA receptor, human pulmonary artery smooth muscle cells. In words: Blocking ET-1 induced Ca++ transients in human pulmonary artery smooth muscle cells. Type of data set: cell-based. Particulars: read-out: IC50 blocking ET-1 induced Ca++ transients via the ETA receptor.
Data set [6] has as its system bET-1 pressor response. Nature of the data set: Inhibition of bET-1 induced pressor effect in rat. Type of data set: in vivo. Particulars: oral. On the procedure: Inhibition of bETI Induced Pressor Effect in Rat Male Sprague-Dawley (Charles River Laboratories, Kingston, Ontario, Canada) weighing 250 to 350 g are anesthetized (Inactin, 120 mg/kg, I.P.) and acutely instrumented with a carotid artery catheter to monitor arterial blood pressure and with a jugular vein catheters to administer intravenous drugs. Once instrumented, the rats are ganglionicblocked with mecamylamine (1.25 mg/kg, I.V.) to prevent hemodynamic reflexes and then challenged with big endothelin-1 (bET-1) (1.0 nmol/kg, I.V.). The peak arterial pressor response in rats pre-treated with selected compounds of invention compared to vehicletreated rats is used to determine activity expressed as % inhibition. For I.V. activity selected compounds of invention was dose 10 minutes before the bET-1 challenge, and for oral activity selected compounds of invention was administered via oral gavage 8 or 24 hours before the bET-1 challenge.

The subject of data set [7] is bET-1 pressor response. In words: Inhibition of bET-1 pressor response in dog. Type of data set: in vivo. To be noted: Canis lupus familiaris, oral, 24 hours postdose.
For data set [8], the system named is acute hypoxic pulmonary hypertension. Nature of the data set: Acute hypoxic pulmonary hypertension in the rat. Type of data set: in vivo. Particulars: oral.
The next data set in a line: Pharmacokinetics in rat. To be noted: in vivo.
Another data set can be described thus: Pharmacokinetics in dog. To be noted: in vivo.
[9] abbreviates: [125I]ET-1 binding, human ETA, Ltk- cell membranes, read-out: HETA (IC50).
Where [10] appears, read: Oryctolagus cuniculus, VSMC, read-out: AARA (IC50, μM).

Structures can show the parent of a compound that is named as a salt. Where two headings read alike, the source gives them in different places.

The results in this text go back to patent US20010036944A1, “Certain benzothiazine dioxide endothelin antagonists and processes for their preparation” (priority 1997, published 2001).

Consider `Cc1ccccc1N1C(C(=O)O)=C(c2ccc3c(c2)OCO3)c2ccccc2S1(=O)=O` [Example 12], for which the IC50 (usually the concentration at which inhibition is half-maximal) in [1] (setting [9]) is 61 nM; in [2] it was more than 25000 nM; in data set [3] (setting [10]) it was 0.1 µM.
Consider `COc1cc(C2=C(C(=O)[O-])N(c3c(C)cccc3C)S(=O)(=O)c3ccccc32)cc2c1OCO2.[Na+]` [Example 6, 2-(2,6-Dimeth Iphenyl)4-(7-methoxy-benzo-[1,3]dioxol-5vl)-1,1 dioxo 1,2dihydro 1λ^6-benzo[e][1,2]thiazine-3-carboxylic acid monosodium salt], for which the IC50 in [1] (setting [9]) was 4 nM; in data set [2], more than 2500 nM. For the same compound, the “VERAA (pA2)” value in data set [4] was 7.1.
On the same counts, the results for `COc1cc(OC)cc(C2=C(C(=O)O)N(c3ccccc3C(F)(F)F)S(=O)(=O)c3ccccc32)c1` [Example 1, 4-(3,5-Dimethoxyphenyl)2-(2-trifluoromethyl-phenyl)-1,1-dioxo-1,2-dihydro-1λ^6-benzo[e][1,2]thiazine-3-carboxylic acid] are 3 nM, more than 2500 nM and 6.6.
Turning to “4-(7-Methoxybenzo[1,3]-dioxol-5-yl)-1,1-dioxo-2-(2-trifluoromethyl-phenyl) 1,2-dihydro 1λ^6-benzo [e][1,2thiazine-3-carboxylic acid [Example 7]”, the IC50 was 3 nM in data set [1] (setting [9]) and 0.0045 µM in data set [3] (ET-1 (0.3 nM) stimulated arachidonic acid release, rabbit renal artery VSMC, read-out: AARA (IC50)). For the same compound, in data set [4], the “VERAA (pA2)” value was determined as 7.0.
`O=C(O)C1=C(c2ccc3c(c2)OCO3)c2ccccc2S(=O)(=O)N1c1ccccc1Cl` [Example 18, 4-Benzo [1,3]dioxol-5yl-2-(2-chlorophenyl)-1,1-dioxo-1,2-dihydro-1λ^6-benzo[e][1,2]thiazine-3-carboxylic acid]: the half-maximal inhibitory concentration (IC50) in data set [1] (setting [9]) was 36 nM; in data set [2], more than 25000 nM; in [3] (setting [10]), 0.032 µM. In addition, the “VERAA (pA2)” value in data set [4] is 5.8.
Consider `O=C(O)C1=C(c2ccc3c(c2)OCO3)c2ccccc2S(=O)(=O)N1c1cc2c(cc1Cl)OCO2` [Example 25], for which the IC50 is 110 nM in data set [1] (setting [9]), more than 25000 nM in data set [2] and 0.05 µM in [3] (setting [10]). In [4], the “VERAA (pA2)” value amounted to 6.0.
Turning to `CCc1cc(C2=C(C(=O)O)N(c3ccccc3C(F)(F)F)S(=O)(=O)c3ccccc32)cc2c1OCO2` [Example 10, 4-(7-Ethylbenzo[1,3]dioxol-5yl)-1,1 dioxo-2-(2-trifluoromethyl-phenyl) 1,2-dihydro1λ^6-benzo[e]11.2]thiazine-3-carboxylic acid, sodium salt], the IC50 in data set [1] (read-out: IC50 of ET-1 binding to human ETA receptors) worked out at 0.6 nM; in data set [2], 2200 nM; in [5], 0.2 nM. The “pA2, antagonism to ET-1 stimulated vasoconstriction in rabbit femoral artery” value in data set [4] is 7.7. In addition, the “VERAA (pA2)” value in data set [4] is 7.7. In the data set with bET-1 pressor response [6] (10 mg/kg, 8 hours postdose), the inhibition – broadly, the percentage by which the read-out fell short of the control – at 10 mg/kg was 44%. Also, the inhibition at 30 mg/kg with bET-1 pressor response [6] (30 mg/kg, 24 hours postdose) was 48%. The same compound registered an inhibition at 15 mg/kg with bET-1 pressor response [7] of 25%. In data set [8] (dose dependent, read-out: ED50, inhibition of acute hypoxic pulmonary hypertension), the ED50 – broadly, the dose at which the effect has come halfway, by size or by number of responders – came to 0.8 mg/kg. Besides, in data set [8] (plasma concentration, read-out: plasma EC50, inhibition of acute hypoxic pulmonary hypertension), the EC50 (in general, the concentration at which the effect is half-maximal) was found to be 0.046 µg/mL. For the same compound, the bioavailability (commonly dose-corrected exposure relative to a reference, in per cent) in the data set “Pharmacokinetics in rat” (oral) was 77%; in the data set “Pharmacokinetics in dog” (oral), 100%. The half-life is 8.5 h in the data set “Pharmacokinetics in rat” (read-out: terminal elimination t1/2 (converted)) and 2.2 h in the data set “Pharmacokinetics in dog”.
As to “4-(3,5-Dimethyl-phenyl)-2-(2-trifluoro-methyl-phenyl)-1,1-dioxo-1,2dihydro-1λ^6-benzo[e][1,2]thiazine-3-carboxylic acid [Example 31]”, the IC50 in data set [1] (setting [9]) is 6 nM; in data set [2], more than 2500 nM. The “VERAA (pA2)” value in data set [4] is listed as 5.7.
In the same order, the values of `O=C(O)C1=C(c2ccc3c(c2)OCO3)c2ccccc2S(=O)(=O)N1c1ccccc1C(F)(F)F` [Example 11, 4-Benzo[1,3]dioxol-5-yl-1,1-dioxo-2-(2-trifluoromethyl-phenyl)-1,2-dihydro-1λ^6-benzo[e][1,2]thiazine-3-carboxylic acid] are 11 nM, 11000 nM and 6.6.
For `O=C(O)C1=C(c2ccc3c(c2)OCO3)c2ccccc2S(=O)(=O)N1c1ccccc1Br` [Example 17, 4-Benzo[1,3]dioxol-5yl-2-(2bromophenyl)-1,1-dioxo-1,2-dihydro-1λ^6-benzo[e][1,2]thiazine-3-carboxylic acid], the IC50 in data set [1] (setting [9]) was 30 nM; in [2] it was more than 25000 nM; in data set [3] (setting [10]) it was 0.031 µM.
